Several values for one entry are separate records, joined by “and”; a condition that tells them apart may be missing. Equal entries are not always repeated. Where two headings read alike, the source gives them in different places.
Key:
Type in all cases: biochemical
[1] = target: T1, Bacillus subtilis glutamine PRPP amidotransferase, wild type (Bacillus subtilis, UniProt P00497); experiment: Inhibition of enzyme activity (glutamate formation) by nucleotides, wild type; settings: for Hill coefficient from inhibition data: determined from inhibition data, PRPP present
T1 construct: Enzymes of the B. subtilis class are synthesized with an NH2 terminal propeptide; made in house; host or cells: E. coli strain TX158 (purF), plasmid pGZ1
Method: Plasmid pGZ1 was used for production of the wild type enzyme. […] For construction of mutants, the EcoRI-HindIII purF^+ DNA was transferred to pUC118 to yield pBsF. […] The resulting plasmids were named pBsF/S283A, pBsF/K305Q, pBsF/R307Q, and pBsF/S347A.
(§1) Enzyme activity was assayed by measuring the initial rate of formation of the product glutamate. […] Incubation was at 37° C. for 6 min. […] Reactions were quenched in a boiling water bath for 2 min, and glutamate was determined by the glutamate dehydrogenase method.
(§2) Inhibition by nucleotides was determined by the standard assay to which varied concentrations of nucleotide were added. Synergistic inhibition was determined by varying the concentration of one nucleotide in the presence of a fixed concentration of a second nucleotide. Relative activity (see FIG. 1) refers to the enzyme activity at a given concentration of the varied nucleotide relative to that in the absence of the varied nucleotide. I0.5 values were calculated from plots of relative activity versus varied nucleotide concentration.

[2] = target: T2, glutamine PRPP amidotransferase R307Q mutant enzyme (Bacillus subtilis, UniProt P00497, R318Q)
T2 construct: Enzymes of the B. subtilis class are synthesized with an NH2 terminal propeptide and an Fe—S center; made in house; host or cells: E. coli strain TX158 (purF) with plasmid pBsF/R307Q
Method: as §1, §2
(§3) These modified forms of amidotransferase were analyzed to determine the impact of the mutations on end-product inhibition and enzymatic activity. Inhibition by nucleotides was determined as described in Example 1.

[3] = target: T3, glutamine PRPP amidotransferase S283A mutant enzyme (Bacillus subtilis, UniProt P00497, S294A); settings: for higher concentration required for 50% inhibition compared to wild type: ADP-GMP mixture
T3 construct: Enzymes of the B. subtilis class are synthesized with an NH2 terminal propeptide and an Fe—S center; made in house; host or cells: E. coli strain TX158 (purF) with plasmid pBsF/S283A
Method: as §1, §2, §3

[4] = target: T4, glutamine PRPP amidotransferase K305Q mutant enzyme (Bacillus subtilis, UniProt P00497, K316Q)
T4 construct: Enzymes of the B. subtilis class are synthesized with an NH2 terminal propeptide and an Fe—S center; made in house; host or cells: E. coli strain TX158 (purF) with plasmid pBsF/K305Q
Method: as §1, §2, §3

[5] = fixed ADP 0.5 mM, read-out: I0.5
[6] = fixed GMP 1.0 mM, read-out: I0.5
[7] = no fixed nucleotide, 2.5 mM PRPP, pH 8.0, 37° C., read-out: I0.5

T2 sequence (P00497 12-476 R318Q): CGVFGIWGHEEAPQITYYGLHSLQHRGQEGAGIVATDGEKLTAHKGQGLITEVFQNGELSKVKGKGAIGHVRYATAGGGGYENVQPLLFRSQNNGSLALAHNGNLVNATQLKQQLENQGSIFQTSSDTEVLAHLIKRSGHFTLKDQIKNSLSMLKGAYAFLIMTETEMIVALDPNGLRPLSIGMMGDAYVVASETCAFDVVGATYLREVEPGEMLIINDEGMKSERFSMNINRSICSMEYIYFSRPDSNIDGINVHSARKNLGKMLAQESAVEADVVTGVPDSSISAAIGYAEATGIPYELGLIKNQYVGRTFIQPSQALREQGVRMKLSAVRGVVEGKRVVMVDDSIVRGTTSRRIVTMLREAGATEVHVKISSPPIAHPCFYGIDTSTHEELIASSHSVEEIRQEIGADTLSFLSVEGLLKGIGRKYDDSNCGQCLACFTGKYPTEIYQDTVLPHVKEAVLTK
T1 sequence (P00497 12-476): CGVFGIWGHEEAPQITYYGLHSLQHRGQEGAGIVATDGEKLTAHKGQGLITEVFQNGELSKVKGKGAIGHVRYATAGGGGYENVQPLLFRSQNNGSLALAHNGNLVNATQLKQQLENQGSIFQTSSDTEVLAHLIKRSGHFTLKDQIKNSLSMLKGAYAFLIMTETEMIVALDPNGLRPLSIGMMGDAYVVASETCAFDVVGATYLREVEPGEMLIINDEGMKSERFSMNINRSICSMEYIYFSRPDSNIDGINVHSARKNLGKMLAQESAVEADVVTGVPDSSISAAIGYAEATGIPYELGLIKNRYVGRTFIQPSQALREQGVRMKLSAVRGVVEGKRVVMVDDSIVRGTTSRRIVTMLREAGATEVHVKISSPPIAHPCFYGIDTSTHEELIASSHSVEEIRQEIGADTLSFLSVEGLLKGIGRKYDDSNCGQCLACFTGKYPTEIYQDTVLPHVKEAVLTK
T3 sequence (P00497 12-476 S294A): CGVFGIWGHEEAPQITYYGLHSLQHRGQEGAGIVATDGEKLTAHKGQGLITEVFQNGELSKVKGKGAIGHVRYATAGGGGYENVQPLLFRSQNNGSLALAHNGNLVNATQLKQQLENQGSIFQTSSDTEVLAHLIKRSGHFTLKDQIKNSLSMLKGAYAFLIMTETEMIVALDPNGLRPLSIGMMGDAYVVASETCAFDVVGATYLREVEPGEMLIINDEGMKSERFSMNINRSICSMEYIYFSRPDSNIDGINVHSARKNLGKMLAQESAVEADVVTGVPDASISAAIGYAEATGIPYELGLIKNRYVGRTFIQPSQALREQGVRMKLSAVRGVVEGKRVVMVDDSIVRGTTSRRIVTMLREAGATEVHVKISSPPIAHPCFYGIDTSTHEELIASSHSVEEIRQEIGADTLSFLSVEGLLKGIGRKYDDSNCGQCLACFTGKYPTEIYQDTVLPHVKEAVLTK
T4 sequence (P00497 12-476 K316Q): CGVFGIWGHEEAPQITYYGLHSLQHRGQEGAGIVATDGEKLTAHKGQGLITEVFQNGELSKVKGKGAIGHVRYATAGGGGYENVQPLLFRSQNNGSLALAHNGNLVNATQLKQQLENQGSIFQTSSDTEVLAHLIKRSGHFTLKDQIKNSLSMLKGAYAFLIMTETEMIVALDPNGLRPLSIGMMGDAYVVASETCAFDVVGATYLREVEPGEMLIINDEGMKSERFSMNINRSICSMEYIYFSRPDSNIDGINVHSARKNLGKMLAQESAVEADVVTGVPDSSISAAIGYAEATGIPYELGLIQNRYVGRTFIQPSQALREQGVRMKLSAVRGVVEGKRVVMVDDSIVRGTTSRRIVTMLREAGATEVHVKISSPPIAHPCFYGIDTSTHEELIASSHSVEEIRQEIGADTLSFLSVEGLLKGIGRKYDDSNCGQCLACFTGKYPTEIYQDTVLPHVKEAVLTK

Nc1ncnc2c1ncn2[C@@H]1O[C@H](COP(=O)(O)O)[C@@H](O)[C@H]1O [AMP]
Hill coefficient from inhibition data [1]: 3.3-3.8
syn. (decreased I0.5 due to a second nucleotide) ([1]; fixed ADP 0.5 mM): 1.4 fold
IC50 [1, 5]: 640 µM
syn. (decreased I0.5 due to a second nucleotide) ([1]; fixed GMP 1.0 mM): 1.0 fold
IC50 [1, 6]: 940 µM
IC50 [1, 7]: 900 µM

Nc1nc2c(ncn2[C@@H]2O[C@H](COP(=O)(O)O)[C@@H](O)[C@H]2O)c(=O)[nH]1 [GMP]
syn. ([2]; fixed ADP 0.5 mM): 15.0
syn. ([2]; fixed ADP 2.5 mM): 66.0
higher concentration required for 50% inhibition compared to wild type [3]: 13 fold
syn. ([3]; fixed ADP 0.5 mM): 3.3
syn. ([3]; fixed ADP 2.5 mM): 3.9
I0.5 increase relative to wild type ([3]; single nucleotide): similar
syn. ([4]; fixed ADP 0.5 mM): 8.3
syn. ([4]; fixed ADP 2.5 mM): 38.0
syn. (decreased I0.5 due to a second nucleotide) ([1]; fixed ADP 0.5 mM): 63 fold and 63.0 fold
IC50 [1, 5]: 150 µM
syn. (decreased I0.5 due to a second nucleotide) ([1]; fixed AMP 0.1 mM): 0.95 fold
IC50 ([1]; fixed AMP 0.1 mM, read-out: I0.5): 9900 µM
concentration for 50% inhibition relative to ADP ([1]; no fixed nucleotide): 2 fold
concentration for 50% inhibition relative to AMP ([1]; no fixed nucleotide): 10 fold
IC50 [1, 7]: 9400 µM

Nc1ncnc2c1ncn2[C@@H]1O[C@H](COP(=O)(O)OP(=O)(O)O)[C@@H](O)[C@H]1O [ADP]
syn. ([2]; fixed GMP 0.50 mM): 12.0
syn. ([2]; fixed GMP 5.0 mM): 156.0
higher concentration required for 50% inhibition compared to wild type [3]: 30 fold
syn. ([3]; fixed GMP 0.50 mM): 5.0
syn. ([4]; fixed GMP 0.50 mM): 2.6
syn. ([4]; fixed GMP 5.0 mM): 97.0
IC50 ([1]; I0.5, fixed GMP 0.25 mM): 240 µM
IC50 ([1]; I0.5, no fixed nucleotide, 2.5 mM PRPP, pH 8.0, 37° C.): 4700 µM
Hill coefficient from inhibition data [1]: 3.8
syn. (decreased I0.5 due to a second nucleotide) ([1]; fixed AMP 0.1 mM): 1.9 fold
syn. (decreased I0.5 due to a second nucleotide) ([1]; fixed GMP 0.25 mM): 20 fold and 20.0 fold
syn. (decreased I0.5 due to a second nucleotide) ([1]; fixed GMP 0.50 mM): 29.0 fold
IC50 ([1]; fixed GMP 0.50 mM, read-out: I0.5): 160 µM
syn. (decreased I0.5 due to a second nucleotide) ([1]; fixed GMP 1.0 mM): 59 fold and 59.0 fold
IC50 [1, 6]: 80 µM
syn. (decreased I0.5 due to a second nucleotide) ([1]; fixed GMP 2.0 mM): 118.0 fold
IC50 ([1]; fixed GMP 2.0 mM, read-out: I0.5): 40 µM
syn. (decreased I0.5 due to a second nucleotide) ([1]; fixed GMP 4.0 mM): 188.0 fold
concentration for 50% inhibition relative to AMP ([1]; no fixed nucleotide): 5 fold

Reference: US6586216B2 (Purdue Research Foundation, priority 1997, dated 2003)
